Data as given in ChEMBL document CHEMBL4507294, “Data for DCP probe MSD-CYP11B2” (2021).

Experiments:
[1] = molecular target: Microtubule-associated serine/threonine-protein kinase 1 (Homo sapiens) (UniProt Q9Y2H9); conditions: Compound concentration 1000.0 nM
[2] = molecular target: Tyrosine-protein kinase Mer (Homo sapiens) (UniProt Q12866); conditions: Compound concentration 1000.0 nM
[3] = molecular target: Tyrosine-protein kinase FRK (Homo sapiens) (UniProt P42685); conditions: Compound concentration 1000.0 nM
[4] = molecular target: ALK tyrosine kinase receptor (Homo sapiens) (UniProt Q9UM73); conditions: Compound concentration 1000.0 nM
[5] = molecular target: Serine/threonine-protein kinase Nek7 (Homo sapiens) (UniProt Q8TDX7); conditions: Compound concentration 1000.0 nM
[6] = molecular target: Serine/threonine-protein kinase Nek6 (Homo sapiens) (UniProt Q9HC98); conditions: Compound concentration 1000.0 nM
[7] = system: Epidermal growth factor receptor (Homo sapiens), P00533 [T790M]; conditions: Compound concentration 1000.0 nM
[8] = molecular target: Activin receptor type-2B (Homo sapiens) (UniProt Q13705); conditions: Compound concentration 1000.0 nM
[9] = molecular target: Protein kinase C theta type (Homo sapiens) (UniProt Q04759); conditions: Compound concentration 1000.0 nM
[10] = molecular target: Ephrin type-A receptor 7 (Homo sapiens) (UniProt Q15375); conditions: Compound concentration 1000.0 nM
[11] = molecular target: Macrophage-stimulating protein receptor (Homo sapiens) (UniProt Q04912); conditions: Compound concentration 1000.0 nM
[12] = molecular target: 5-hydroxytryptamine receptor 2B (Homo sapiens, UniProt P41595); conditions: Compound concentration 10.0 uM
[13] = system: Receptor-type tyrosine-protein kinase FLT3 (Homo sapiens), P36888 [D835Y]; conditions: Compound concentration 1000.0 nM
[14] = molecular target: Serine/threonine-protein kinase 36 (Homo sapiens) (UniProt Q9NRP7); conditions: Compound concentration 1000.0 nM
[15] = molecular target: Dual specificity testis-specific protein kinase 1 (Homo sapiens) (UniProt Q15569); conditions: Compound concentration 1000.0 nM
[16] = molecular target: Calcium/calmodulin-dependent protein kinase type II subunit alpha (Homo sapiens) (UniProt Q9UQM7); conditions: Compound concentration 1000.0 nM
[17] = molecular target: Fibroblast growth factor receptor 4 (Homo sapiens) (UniProt P22455); conditions: Compound concentration 1000.0 nM
[18] = molecular target: Ephrin type-B receptor 1 (Homo sapiens) (UniProt P54762); conditions: Compound concentration 1000.0 nM
[19] = molecular target: High affinity nerve growth factor receptor (Homo sapiens) (UniProt P04629); conditions: Compound concentration 1000.0 nM
[20] = system: Phosphatidylinositol 4,5-bisphosphate 3-kinase catalytic subunit alpha isoform (Homo sapiens), P42336 [H1047Y]; conditions: Compound concentration 1000.0 nM
[21] = molecular target: Dual specificity protein kinase TTK (Homo sapiens) (UniProt P33981); conditions: Compound concentration 1000.0 nM
[22] = molecular target: Serine/threonine-protein kinase SIK2 (Homo sapiens) (UniProt Q9H0K1); conditions: Compound concentration 1000.0 nM
[23] = molecular target: Mitogen-activated protein kinase kinase kinase 19 (Homo sapiens) (UniProt Q56UN5); conditions: Compound concentration 1000.0 nM
[24] = molecular target: Ribosomal protein S6 kinase alpha-1 (Homo sapiens) (UniProt Q15418); conditions: Compound concentration 1000.0 nM
[25] = molecular target: Myosin light chain kinase family member 4 (Homo sapiens) (UniProt Q86YV6); conditions: Compound concentration 1000.0 nM
[26] = molecular target: Rho-associated protein kinase 1 (Homo sapiens) (UniProt Q13464); conditions: Compound concentration 1000.0 nM
[27] = molecular target: Serine/threonine-protein kinase/endoribonuclease IRE1 (Homo sapiens) (UniProt O75460); conditions: Compound concentration 1000.0 nM
[28] = molecular target: Tyrosine-protein kinase ZAP-70 (Homo sapiens) (UniProt P43403); conditions: Compound concentration 1000.0 nM
[29] = molecular target: Megakaryocyte-associated tyrosine-protein kinase (Homo sapiens) (UniProt P42679); conditions: Compound concentration 1000.0 nM
[30] = molecular target: Serine/threonine-protein kinase B-raf (Homo sapiens) (UniProt P15056); conditions: Compound concentration 1000.0 nM
[31] = molecular target: Calcium/calmodulin-dependent protein kinase type II subunit gamma (Homo sapiens) (UniProt Q13555); conditions: Compound concentration 1000.0 nM
[32] = molecular target: RAF proto-oncogene serine/threonine-protein kinase (Homo sapiens) (UniProt P04049); conditions: Compound concentration 1000.0 nM
[33] = molecular target: Serine/threonine-protein kinase PAK 6 (Homo sapiens) (UniProt Q9NQU5); conditions: Compound concentration 1000.0 nM
[34] = molecular target: Serine/threonine-protein kinase tousled-like 1 (Homo sapiens) (UniProt Q9UKI8); conditions: Compound concentration 1000.0 nM
[35] = molecular target: Uncharacterized serine/threonine-protein kinase SBK3 (Homo sapiens) (UniProt P0C264); conditions: Compound concentration 1000.0 nM
[36] = molecular target: Cyclin-dependent kinase 8 (Homo sapiens) (UniProt P49336); conditions: Compound concentration 1000.0 nM
[37] = molecular target: Serine/threonine-protein kinase SIK3 (Homo sapiens) (UniProt Q9Y2K2); conditions: Compound concentration 1000.0 nM
[38] = molecular target: Cyclin-dependent kinase 13 (Homo sapiens) (UniProt Q14004); conditions: Compound concentration 1000.0 nM
[39] = molecular target: Serine/threonine-protein kinase Nek10 (Homo sapiens) (UniProt Q6ZWH5); conditions: Compound concentration 1000.0 nM
[40] = molecular target: Serine/threonine-protein kinase BRSK1 (Homo sapiens) (UniProt Q8TDC3); conditions: Compound concentration 1000.0 nM
[41] = molecular target: Casein kinase II subunit alpha (Homo sapiens) (UniProt P68400); conditions: Compound concentration 1000.0 nM
[42] = molecular target: Cyclin-dependent kinase 3 (Homo sapiens) (UniProt Q00526); conditions: Compound concentration 1000.0 nM
[43] = molecular target: Cyclin-dependent kinase 11A (Homo sapiens) (UniProt Q9UQ88); conditions: Compound concentration 1000.0 nM
[44] = molecular target: Ribosomal protein S6 kinase alpha-2 (Homo sapiens) (UniProt Q15349); conditions: Compound concentration 1000.0 nM
[45] = molecular target: Beta-2 adrenergic receptor (Homo sapiens) (UniProt P07550); conditions: Compound concentration 10.0 uM

Chain of Serine/threonine-protein kinase Nek7 (Homo sapiens) (Q8TDX7 whole entry, looked up): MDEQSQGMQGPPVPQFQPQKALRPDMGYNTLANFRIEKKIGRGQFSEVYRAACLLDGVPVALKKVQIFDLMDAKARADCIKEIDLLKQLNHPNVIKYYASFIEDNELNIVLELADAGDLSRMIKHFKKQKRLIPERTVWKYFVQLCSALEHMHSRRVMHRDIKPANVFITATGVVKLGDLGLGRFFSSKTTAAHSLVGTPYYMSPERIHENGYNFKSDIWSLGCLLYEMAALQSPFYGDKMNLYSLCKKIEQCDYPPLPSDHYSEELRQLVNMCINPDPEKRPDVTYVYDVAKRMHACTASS
Chain of Myosin light chain kinase family member 4 (Homo sapiens) (Q86YV6 whole entry): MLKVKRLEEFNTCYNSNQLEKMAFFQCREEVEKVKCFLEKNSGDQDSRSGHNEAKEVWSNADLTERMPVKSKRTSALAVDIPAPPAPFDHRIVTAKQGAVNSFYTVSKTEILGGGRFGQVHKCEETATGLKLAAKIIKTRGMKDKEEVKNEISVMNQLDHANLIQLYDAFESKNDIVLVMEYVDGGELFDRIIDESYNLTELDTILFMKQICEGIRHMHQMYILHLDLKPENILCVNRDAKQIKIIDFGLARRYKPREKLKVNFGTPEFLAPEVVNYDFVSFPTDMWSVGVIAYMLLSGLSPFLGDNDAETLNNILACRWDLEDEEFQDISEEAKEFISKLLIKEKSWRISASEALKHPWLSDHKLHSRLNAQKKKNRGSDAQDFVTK
Chain of Mitogen-activated protein kinase kinase kinase 19 (Homo sapiens) (Q56UN5 whole entry): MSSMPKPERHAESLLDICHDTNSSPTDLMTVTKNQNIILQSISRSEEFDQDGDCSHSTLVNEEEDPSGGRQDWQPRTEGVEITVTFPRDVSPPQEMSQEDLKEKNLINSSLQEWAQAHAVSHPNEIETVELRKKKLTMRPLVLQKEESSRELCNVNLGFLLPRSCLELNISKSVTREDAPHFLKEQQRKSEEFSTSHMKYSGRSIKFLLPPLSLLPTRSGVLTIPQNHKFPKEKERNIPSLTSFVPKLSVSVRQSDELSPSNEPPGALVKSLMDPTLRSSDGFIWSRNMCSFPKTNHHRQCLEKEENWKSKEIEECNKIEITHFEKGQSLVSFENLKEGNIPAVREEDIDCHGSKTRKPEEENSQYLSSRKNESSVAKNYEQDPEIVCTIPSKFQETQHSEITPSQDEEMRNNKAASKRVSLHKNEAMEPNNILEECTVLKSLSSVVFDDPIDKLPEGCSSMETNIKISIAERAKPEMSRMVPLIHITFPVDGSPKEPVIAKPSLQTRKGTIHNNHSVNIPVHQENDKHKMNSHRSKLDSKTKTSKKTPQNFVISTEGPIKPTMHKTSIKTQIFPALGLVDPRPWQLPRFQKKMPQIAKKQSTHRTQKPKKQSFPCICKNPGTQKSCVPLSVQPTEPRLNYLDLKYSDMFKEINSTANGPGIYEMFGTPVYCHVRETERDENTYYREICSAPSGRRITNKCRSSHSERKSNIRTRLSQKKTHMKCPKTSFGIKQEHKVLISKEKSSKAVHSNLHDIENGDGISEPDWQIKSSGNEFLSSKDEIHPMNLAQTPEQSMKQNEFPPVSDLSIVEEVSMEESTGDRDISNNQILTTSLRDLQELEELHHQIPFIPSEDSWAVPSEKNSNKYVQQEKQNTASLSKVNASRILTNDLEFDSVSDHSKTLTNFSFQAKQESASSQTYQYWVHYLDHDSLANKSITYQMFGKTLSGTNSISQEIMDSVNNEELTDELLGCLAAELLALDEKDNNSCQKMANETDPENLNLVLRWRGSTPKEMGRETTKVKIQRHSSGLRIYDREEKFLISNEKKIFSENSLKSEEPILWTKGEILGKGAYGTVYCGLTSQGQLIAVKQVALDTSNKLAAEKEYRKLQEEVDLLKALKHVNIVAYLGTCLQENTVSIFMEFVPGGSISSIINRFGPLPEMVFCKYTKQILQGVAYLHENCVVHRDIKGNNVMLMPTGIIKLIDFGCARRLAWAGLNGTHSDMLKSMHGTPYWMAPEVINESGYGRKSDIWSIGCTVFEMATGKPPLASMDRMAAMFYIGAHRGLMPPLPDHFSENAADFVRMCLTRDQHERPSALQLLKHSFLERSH
Chain of Serine/threonine-protein kinase tousled-like 1 (Homo sapiens) (Q9UKI8 whole entry): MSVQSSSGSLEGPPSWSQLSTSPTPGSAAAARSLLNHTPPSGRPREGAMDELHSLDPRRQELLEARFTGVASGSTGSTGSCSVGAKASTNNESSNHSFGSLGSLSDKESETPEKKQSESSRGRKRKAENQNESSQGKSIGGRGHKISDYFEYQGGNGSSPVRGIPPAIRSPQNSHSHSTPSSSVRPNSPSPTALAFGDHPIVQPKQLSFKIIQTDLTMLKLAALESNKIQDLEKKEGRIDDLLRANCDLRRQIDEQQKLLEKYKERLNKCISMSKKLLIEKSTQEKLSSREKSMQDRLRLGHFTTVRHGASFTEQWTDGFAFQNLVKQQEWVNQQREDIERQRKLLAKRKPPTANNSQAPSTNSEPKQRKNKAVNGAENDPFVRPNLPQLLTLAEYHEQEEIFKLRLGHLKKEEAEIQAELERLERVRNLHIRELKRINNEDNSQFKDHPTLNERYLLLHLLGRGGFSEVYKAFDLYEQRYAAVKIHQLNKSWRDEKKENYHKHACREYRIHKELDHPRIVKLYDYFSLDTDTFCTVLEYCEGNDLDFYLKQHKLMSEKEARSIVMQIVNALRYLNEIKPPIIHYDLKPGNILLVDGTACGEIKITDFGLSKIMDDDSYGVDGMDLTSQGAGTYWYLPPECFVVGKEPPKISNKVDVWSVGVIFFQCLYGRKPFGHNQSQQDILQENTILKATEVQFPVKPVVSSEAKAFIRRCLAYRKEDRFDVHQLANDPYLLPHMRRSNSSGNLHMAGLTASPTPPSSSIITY
Chain of Serine/threonine-protein kinase 36 (Homo sapiens) (Q9NRP7 whole entry): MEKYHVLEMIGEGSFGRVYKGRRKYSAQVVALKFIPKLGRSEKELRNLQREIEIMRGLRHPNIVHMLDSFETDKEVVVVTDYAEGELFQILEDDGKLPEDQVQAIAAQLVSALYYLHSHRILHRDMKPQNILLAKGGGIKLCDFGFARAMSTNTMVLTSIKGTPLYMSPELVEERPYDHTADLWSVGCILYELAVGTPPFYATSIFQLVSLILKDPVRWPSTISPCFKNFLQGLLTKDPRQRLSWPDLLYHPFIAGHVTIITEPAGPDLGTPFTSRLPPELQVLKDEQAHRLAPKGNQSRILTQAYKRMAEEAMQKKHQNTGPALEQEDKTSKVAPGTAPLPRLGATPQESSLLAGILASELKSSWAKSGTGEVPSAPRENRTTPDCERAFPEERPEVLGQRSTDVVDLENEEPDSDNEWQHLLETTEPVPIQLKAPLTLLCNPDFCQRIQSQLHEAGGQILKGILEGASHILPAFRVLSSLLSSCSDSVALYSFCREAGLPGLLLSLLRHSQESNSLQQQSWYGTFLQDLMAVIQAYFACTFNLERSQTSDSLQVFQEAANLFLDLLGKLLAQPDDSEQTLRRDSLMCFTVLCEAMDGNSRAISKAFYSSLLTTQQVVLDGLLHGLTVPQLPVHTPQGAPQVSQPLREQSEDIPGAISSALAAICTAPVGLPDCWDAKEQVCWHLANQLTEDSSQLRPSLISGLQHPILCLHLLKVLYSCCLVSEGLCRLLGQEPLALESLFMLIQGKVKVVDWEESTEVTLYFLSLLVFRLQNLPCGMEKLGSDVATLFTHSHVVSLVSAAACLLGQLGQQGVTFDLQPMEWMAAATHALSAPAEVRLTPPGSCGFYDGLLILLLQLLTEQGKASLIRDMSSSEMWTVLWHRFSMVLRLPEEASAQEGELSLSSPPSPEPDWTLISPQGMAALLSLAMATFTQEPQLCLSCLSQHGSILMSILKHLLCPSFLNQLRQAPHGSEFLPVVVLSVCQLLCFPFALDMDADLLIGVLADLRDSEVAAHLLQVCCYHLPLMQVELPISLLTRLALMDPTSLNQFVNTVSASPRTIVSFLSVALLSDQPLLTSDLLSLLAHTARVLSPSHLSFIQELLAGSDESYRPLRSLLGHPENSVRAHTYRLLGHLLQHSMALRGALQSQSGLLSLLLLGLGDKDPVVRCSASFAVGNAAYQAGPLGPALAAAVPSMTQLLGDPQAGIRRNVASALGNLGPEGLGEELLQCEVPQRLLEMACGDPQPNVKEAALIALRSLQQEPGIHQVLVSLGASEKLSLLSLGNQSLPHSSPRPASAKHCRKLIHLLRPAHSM
Chain of Casein kinase II subunit alpha (Homo sapiens) (P68400 whole entry, looked up): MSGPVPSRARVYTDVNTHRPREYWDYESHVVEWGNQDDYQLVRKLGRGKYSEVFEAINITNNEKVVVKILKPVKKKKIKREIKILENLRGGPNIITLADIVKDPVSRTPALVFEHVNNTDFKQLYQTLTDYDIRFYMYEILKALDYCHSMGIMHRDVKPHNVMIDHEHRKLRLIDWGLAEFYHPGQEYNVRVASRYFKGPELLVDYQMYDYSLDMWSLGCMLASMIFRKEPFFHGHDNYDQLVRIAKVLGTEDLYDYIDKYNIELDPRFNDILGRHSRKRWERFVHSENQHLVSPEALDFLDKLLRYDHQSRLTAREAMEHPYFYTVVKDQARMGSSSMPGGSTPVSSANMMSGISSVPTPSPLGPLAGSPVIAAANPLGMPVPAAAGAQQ
Chain of Serine/threonine-protein kinase Nek6 (Homo sapiens) (Q9HC98 whole entry): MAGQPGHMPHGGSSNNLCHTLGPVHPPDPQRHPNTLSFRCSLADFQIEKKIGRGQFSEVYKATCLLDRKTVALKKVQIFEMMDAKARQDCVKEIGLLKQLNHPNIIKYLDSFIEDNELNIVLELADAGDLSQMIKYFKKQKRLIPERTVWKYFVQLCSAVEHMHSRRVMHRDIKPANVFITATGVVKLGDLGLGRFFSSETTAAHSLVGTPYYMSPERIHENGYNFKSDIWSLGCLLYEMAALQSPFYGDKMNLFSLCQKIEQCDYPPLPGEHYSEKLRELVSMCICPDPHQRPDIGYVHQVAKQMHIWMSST

**Q.** For `CC(C)(O)c1cncc(-c2nc3ccc(F)cc3n2C2CC2)c1` [MSD-CYP11B2], which residual activity [1] is on record?
**A.** 100%

**Q.** And the residual activity [2]?
**A.** 96%

**Q.** What about the residual activity [3] of the same compound?
**A.** 100%

**Q.** What about the residual activity [4] of the same compound?
**A.** 77%

**Q.** What about the residual activity [5] of the same compound?
**A.** 100%

**Q.** And the residual activity [6]?
**A.** 100%

**Q.** What about the residual activity [7] of the same compound?
**A.** 90%

**Q.** And the residual activity [8]?
**A.** 85%

**Q.** What about the residual activity [9] of the same compound?
**A.** 100%

**Q.** What about the residual activity [10] of the same compound?
**A.** 100%

**Q.** And the residual activity [11]?
**A.** 100%

**Q.** And the inhibition [12]?
**A.** 63.1%

**Q.** What about the residual activity [13] of the same compound?
**A.** 100%

**Q.** What about the residual activity [14] of the same compound?
**A.** 93%

**Q.** And the residual activity [15]?
**A.** 100%

**Q.** What about the residual activity [16] of the same compound?
**A.** 94%

**Q.** And the residual activity [17]?
**A.** 100%

**Q.** And the residual activity [18]?
**A.** 100%

**Q.** What about the residual activity [19] of the same compound?
**A.** 100%

**Q.** What about the residual activity [20] of the same compound?
**A.** 90%

**Q.** What about the residual activity [21] of the same compound?
**A.** 100%

**Q.** And the residual activity [22]?
**A.** 100%

**Q.** What about the residual activity [23] of the same compound?
**A.** 93%

**Q.** What about the residual activity [24] of the same compound?
**A.** 100%

**Q.** What about the residual activity [25] of the same compound?
**A.** 100%

**Q.** What about the residual activity [26] of the same compound?
**A.** 99%

**Q.** What about the residual activity [27] of the same compound?
**A.** 100%

**Q.** What about the residual activity [28] of the same compound?
**A.** 100%

**Q.** And the residual activity [29]?
**A.** 100%

**Q.** And the residual activity [30]?
**A.** 100%

**Q.** What about the residual activity [31] of the same compound?
**A.** 100%

**Q.** And the residual activity [32]?
**A.** 83%

**Q.** And the residual activity [33]?
**A.** 100%

**Q.** And the residual activity [34]?
**A.** 100%

**Q.** And the residual activity [35]?
**A.** 77%

**Q.** What about the residual activity [36] of the same compound?
**A.** 95%

**Q.** And the residual activity [37]?
**A.** 97%

**Q.** And the residual activity [38]?
**A.** 96%

**Q.** What about the residual activity [39] of the same compound?
**A.** 100%

**Q.** And the residual activity [40]?
**A.** 100%

**Q.** And the residual activity [41]?
**A.** 100%

**Q.** What about the residual activity [42] of the same compound?
**A.** 100%

**Q.** And the residual activity [43]?
**A.** 100%

**Q.** And the residual activity [44]?
**A.** 100%

**Q.** What about the inhibition [45] of the same compound?
**A.** 2.65%

**Q.** `FC(F)(F)c1ccc2c(c1)nc(-c1cccnc1)n2C1CC1` [MSD-CYP11B2-Negative-control] was tested. Which residual activity [1] did it give?
**A.** 100%

**Q.** And the residual activity [2]?
**A.** 79%

**Q.** And the residual activity [3]?
**A.** 100%

**Q.** What about the residual activity [4] of the same compound?
**A.** 100%

**Q.** And the residual activity [5]?
**A.** 100%

**Q.** And the residual activity [6]?
**A.** 100%

**Q.** What about the residual activity [7] of the same compound?
**A.** 87%

**Q.** And the residual activity [8]?
**A.** 100%

**Q.** And the residual activity [9]?
**A.** 100%

**Q.** What about the residual activity [10] of the same compound?
**A.** 100%

**Q.** And the residual activity [11]?
**A.** 100%

**Q.** What about the inhibition [12] of the same compound?
**A.** 79.7%

**Q.** And the residual activity [13]?
**A.** 100%

**Q.** What about the residual activity [14] of the same compound?
**A.** 84%

**Q.** And the residual activity [15]?
**A.** 100%

**Q.** What about the residual activity [16] of the same compound?
**A.** 88%

**Q.** And the residual activity [17]?
**A.** 100%

**Q.** And the residual activity [18]?
**A.** 100%

**Q.** What about the residual activity [19] of the same compound?
**A.** 100%

**Q.** What about the residual activity [20] of the same compound?
**A.** 78%

**Q.** And the residual activity [21]?
**A.** 100%

**Q.** What about the residual activity [22] of the same compound?
**A.** 100%

**Q.** What about the residual activity [23] of the same compound?
**A.** 99%

**Q.** And the residual activity [24]?
**A.** 100%

**Q.** And the residual activity [25]?
**A.** 100%

**Q.** And the residual activity [26]?
**A.** 100%

**Q.** And the residual activity [27]?
**A.** 100%

**Q.** What about the residual activity [28] of the same compound?
**A.** 100%

**Q.** And the residual activity [29]?
**A.** 100%

**Q.** What about the residual activity [30] of the same compound?
**A.** 100%

**Q.** And the residual activity [31]?
**A.** 100%

**Q.** What about the residual activity [32] of the same compound?
**A.** 76%

**Q.** And the residual activity [33]?
**A.** 100%

**Q.** What about the residual activity [34] of the same compound?
**A.** 100%

**Q.** What about the residual activity [35] of the same compound?
**A.** 76%

**Q.** And the residual activity [36]?
**A.** 100%

**Q.** And the residual activity [37]?
**A.** 100%

**Q.** And the residual activity [38]?
**A.** 100%

**Q.** What about the residual activity [39] of the same compound?
**A.** 100%

**Q.** What about the residual activity [40] of the same compound?
**A.** 100%

**Q.** And the residual activity [41]?
**A.** 100%

**Q.** What about the residual activity [42] of the same compound?
**A.** 100%

**Q.** What about the residual activity [43] of the same compound?
**A.** 100%

**Q.** What about the residual activity [44] of the same compound?
**A.** 100%

**Q.** What about the inhibition [45] of the same compound?
**A.** 1.56%
